Test results from EPA's ToxRefDB 2.

Tests used:
rat [1] = conditions: Developmental neurotoxicity study, sprague dawley, Oral, [Not Specified], dose end: 155 PND, group: cannot be grouped
mink = conditions: Multigenerational reproductive toxicity study, ranch wild brown, Oral, Feed, dose end: 1 generation
mouse = conditions: Carcinogenicity; b6c3f1; Oral; Feed; dose end: 80 week; group: systemic; systemic / pathology microscopic / liver / hepatocellular carcinoma
rat [2] = conditions: Carcinogenicity, Osborne-Mendel, Oral, Feed, dose end: 80 week, group: systemic
rat [3] = conditions: Multigenerational reproductive toxicity study, wistar, Oral, Feed, dose end: 2 generation
rat [4] = conditions: Developmental neurotoxicity study; sprague dawley; Oral; Gavage/Intubation; dose end: 125 PND; group: cannot be grouped; systemic / in life observation / body weight / offspring (pup) weight + systemic / in life observation / body weight / offspring (pup) …
rat [5] = conditions: Multigenerational reproductive toxicity study, wistar, Oral, Feed, dose end: 2 generation; remark: listed apart in the source
rat [6] = conditions: Developmental neurotoxicity study; long evans; Inhalation; Whole-Body; dose end: 100 PND; group: cannot be grouped; developmental / developmental malformation / bone / incomplete ossification + developmental / developmental malformation / ovary / …
[7] = systemic / clinical chemistry / [other] / [other] + systemic / clinical chemistry / chloride / chloride + systemic / in life observation / …
[8] = systemic / clinical chemistry / chloride / chloride + systemic / in life observation / clinical signs / urination
[9] = group: offspring, developmental / offspring survival late / [other] / [other] + systemic / in life observation / body weight / offspring (pup) weight
[10] = group: offspring, systemic / in life observation / body weight / offspring (pup) weight
[11] = group: parental, systemic / in life observation / body weight / body weight + systemic / in life observation / clinical signs / [other] + systemic / in life …
[12] = group: reproductive, reproductive / reproductive performance / resorptions / resorptions + reproductive / offspring survival early / dead fetuses / dead fetuses
[13] = systemic / in life observation / clinical signs / palpable mass + systemic / in life observation / clinical signs / vaginal discharge
[14] = systemic / in life observation / clinical signs / palpable mass + systemic / in life observation / clinical signs / vaginal discharge + …
[15] = group: offspring, developmental / developmental landmark / anogenital distance (agd) / anogenital distance (agd) + developmental / developmental landmark / …
[16] = group: parental, systemic / in life observation / body weight / body weight gain + systemic / in life observation / body weight / body weight + systemic / …
[17] = group: reproductive, reproductive / offspring survival early / birth index / live birth index + reproductive / reproductive performance / estrous cycle / …
[18] = group: parental, systemic / organ weight / epididymis / absolute + systemic / organ weight / testes / absolute

ClC1=C(Cl)C2(Cl)C3C(Cl)C=CC3C1(Cl)C2(Cl)Cl (configuration not stated) [Heptachlor]
LOAEL (rat [1]; [7]): > 3 mg/kg/day | NOAEL (rat [1]; [7]): ≥ 3 mg/kg/day | LEL (rat [1]; [8]): 0.03 mg/kg/day | NEL (rat [1]; [8]): < 0.03 mg/kg/day | LOAEL (mink; [9]): > 25 mg/kg/day | NOAEL (mink; [9]): ≥ 25 mg/kg/day | LEL (mink; [10]): 6.25 mg/kg/day | NEL (mink; [10]): < 6.25 mg/kg/day | LEL (mink; [11]): 12.5 mg/kg/day | LOAEL (mink; [11]): > 25 mg/kg/day | NEL (mink; [11]): 6.25 mg/kg/day | NOAEL (mink; [11]): ≥ 25 mg/kg/day | NEL (mink; group: reproductive, reproductive / reproductive performance / resorptions / resorptions): 6.25 mg/kg/day | LEL (mink; [12]): 12.5 mg/kg/day | LOAEL (mink; [12]): > 25 mg/kg/day | NOAEL (mink; [12]): ≥ 25 mg/kg/day | LEL (mouse): 2.07 mg/kg/day | LOAEL (mouse): > 2.07 mg/kg/day | NEL (mouse): 0.915 mg/kg/day | NOAEL (mouse): ≥ 2.07 mg/kg/day | LEL (rat [2]; [13]): 1.28 mg/kg/day | NEL (rat [2]; [13]): < 1.28 mg/kg/day | LOAEL (rat [2]; [14]): > 2.56 mg/kg/day | NOAEL (rat [2]; [14]): ≥ 2.56 mg/kg/day

CCC[CH2][Sn]([Cl])([CH2]CCC)[CH2]CCC [Tributyltin chloride]
LEL (rat [3]; group: offspring, developmental / developmental landmark / anogenital distance (agd) / anogenital distance (agd)): 1.25 mg/kg/day | LOAEL (rat [3]; [15]): > 6.25 mg/kg/day | NEL (rat [3]; [15]): 0.25 mg/kg/day | NOAEL (rat [3]; [15]): ≥ 6.25 mg/kg/day | NEL (rat [3]; group: parental, systemic / in life observation / body weight / body weight gain): 1.25 mg/kg/day | LEL (rat [3]; [16]): 6.25 mg/kg/day | LOAEL (rat [3]; [16]): > 6.25 mg/kg/day | NOAEL (rat [3]; [16]): ≥ 6.25 mg/kg/day | LEL (rat [3]; [17]): 6.25 mg/kg/day | LOAEL (rat [3]; [17]): > 6.25 mg/kg/day | NEL (rat [3]; [17]): 1.25 mg/kg/day | NOAEL (rat [3]; [17]): ≥ 6.25 mg/kg/day | LEL (rat [4]): 5 mg/kg/day | LOAEL (rat [4]): > 5 mg/kg/day | NEL (rat [4]): 1 mg/kg/day | NOAEL (rat [4]): ≥ 5 mg/kg/day | LEL (rat [5]; [10]): 0.25 mg/kg/day | LOAEL (rat [5]; [10]): 0.25 mg/kg/day | NEL (rat [5]; [10]): < 0.25 mg/kg/day | NOAEL (rat [5]; [10]): < 0.25 mg/kg/day | LEL (rat [5]; [18]): 0.25 mg/kg/day | LOAEL (rat [5]; [18]): 0.25 mg/kg/day | NEL (rat [5]; [18]): < 0.25 mg/kg/day | NOAEL (rat [5]; [18]): < 0.25 mg/kg/day

ClC=C(Cl)Cl [Trichloroethylene]
LEL (rat [6]): 1800 ppm | LOAEL (rat [6]): > 1800 ppm | NEL (rat [6]): < 1800 ppm | NOAEL (rat [6]): ≥ 1800 ppm
